Laboratory results published in the NIST ThermoML archive (doi:10.1021/je0501843).
Where “and” joins values, the source holds several entries; their conditions need not be identical. Identical values can stand only once. Numbers after ± are expanded uncertainties.

Assay: molar heat capacity at constant volume
Details: Fluid (supercritical or subcritical phases), Vacuum adiabatic calorimetry

FC(F)C(F)(F)F [pentafluoroethane]
Details	molar heat capacity at constant volume
306 K, Mass density=1202.8 kg/m3	102.77 ± 2.1 J/K/mol
307 K, Mass density=1202.7 kg/m3	103.99 ± 2.1 J/K/mol
308 K, Mass density=1202.5 kg/m3	103.96 ± 2.1 J/K/mol
309 K, Mass density=1202.4 kg/m3	102.49 ± 2.1 J/K/mol
310 K, Mass density=1202.3 kg/m3	101.48 ± 2 J/K/mol
311 K, Mass density=1202.1 kg/m3	102.64 ± 2.1 J/K/mol
312 K, Mass density=1202 kg/m3	103.21 ± 2.1 J/K/mol
313 K, Mass density=1201.9 kg/m3	102.64 ± 2.1 J/K/mol
314 K, Mass density=1201.7 kg/m3	103.24 ± 2.1 J/K/mol
315 K, Mass density=1201.6 kg/m3	102.92 ± 2.1 J/K/mol
316 K, Mass density=1201.5 kg/m3	103.09 ± 2.1 J/K/mol
317 K, Mass density=1201.4 kg/m3	102.73 ± 2.1 J/K/mol
318 K, Mass density=1201.2 kg/m3	102.19 ± 2.1 J/K/mol
319 K, Mass density=1201.1 kg/m3	102.74 ± 2.1 J/K/mol
320 K, Mass density=1201 kg/m3	102.92 ± 2.1 J/K/mol
321 K, Mass density=1200.8 kg/m3	102.75 ± 2.1 J/K/mol and 102.7 ± 2.1 J/K/mol
322 K, Mass density=1079.2 kg/m3	106.18 ± 2.1 J/K/mol and 102.47 ± 2.1 J/K/mol
322 K, Mass density=1200.7 kg/m3	102.47 ± 2.1 J/K/mol and 101.89 ± 2.1 J/K/mol
323 K, Mass density=1079.1 kg/m3	105.94 ± 2.1 J/K/mol and 104.02 ± 2.1 J/K/mol
323 K, Mass density=1200.6 kg/m3	102.89 ± 2.1 J/K/mol and 102.1 ± 2.1 J/K/mol
324 K, Mass density=1079 kg/m3	105.71 ± 2.1 J/K/mol and 105.31 ± 2.1 J/K/mol
324 K, Mass density=1200.5 kg/m3	102.77 ± 2.1 J/K/mol and 102.45 ± 2.1 J/K/mol
325 K, Mass density=1078.9 kg/m3	104.71 ± 2.1 J/K/mol and 104.09 ± 2.1 J/K/mol
325 K, Mass density=1200.3 kg/m3	102.83 ± 2.1 J/K/mol and 102.31 ± 2.1 J/K/mol
326 K, Mass density=1078.8 kg/m3	103.25 ± 2.1 J/K/mol and 103.34 ± 2.1 J/K/mol
326 K, Mass density=1200.2 kg/m3	102.63 ± 2.1 J/K/mol and 102.1 ± 2.1 J/K/mol
327 K, Mass density=1078.7 kg/m3	104.31 ± 2.1 J/K/mol
327 K, Mass density=1200.1 kg/m3	102.65 ± 2.1 J/K/mol and 102.35 ± 2.1 J/K/mol
328 K, Mass density=1078.6 kg/m3	105.03 ± 2.1 J/K/mol and 104.85 ± 2.1 J/K/mol
328 K, Mass density=1199.9 kg/m3	102.89 ± 2.1 J/K/mol
328 K, Mass density=1200 kg/m3	103.64 ± 2.1 J/K/mol
329 K, Mass density=1078.5 kg/m3	104.79 ± 2.1 J/K/mol and 104.41 ± 2.1 J/K/mol
329 K, Mass density=1199.8 kg/m3	102.81 ± 2.1 J/K/mol and 102.69 ± 2.1 J/K/mol
330 K, Mass density=1078.4 kg/m3	105.01 ± 2.1 J/K/mol and 104.07 ± 2.1 J/K/mol
330 K, Mass density=1199.7 kg/m3	103.09 ± 2.1 J/K/mol
331 K, Mass density=1078.3 kg/m3	104.36 ± 2.1 J/K/mol and 104.2 ± 2.1 J/K/mol
331 K, Mass density=1199.6 kg/m3	102.64 ± 2.1 J/K/mol
332 K, Mass density=976.3 kg/m3	110.56 ± 2.2 J/K/mol and 112.17 ± 2.3 J/K/mol
332 K, Mass density=1078.2 kg/m3	104.98 ± 2.1 J/K/mol and 105.47 ± 2.1 J/K/mol
332 K, Mass density=1199.4 kg/m3	103.45 ± 2.1 J/K/mol
333 K, Mass density=976.2 kg/m3	107.88 ± 2.2 J/K/mol and 109.12 ± 2.2 J/K/mol
333 K, Mass density=1078.1 kg/m3	105.77 ± 2.1 J/K/mol and 104.87 ± 2.1 J/K/mol
333 K, Mass density=1199.3 kg/m3	103.83 ± 2.1 J/K/mol
334 K, Mass density=976.2 kg/m3	105.25 ± 2.1 J/K/mol and 107.12 ± 2.1 J/K/mol
334 K, Mass density=1078 kg/m3	104.98 ± 2.1 J/K/mol and 103.53 ± 2.1 J/K/mol
334 K, Mass density=1199.2 kg/m3	103.39 ± 2.1 J/K/mol
335 K, Mass density=976.1 kg/m3	106.11 ± 2.1 J/K/mol and 106.99 ± 2.1 J/K/mol
335 K, Mass density=1077.9 kg/m3	104.43 ± 2.1 J/K/mol and 103.57 ± 2.1 J/K/mol
335 K, Mass density=1199.1 kg/m3	102.85 ± 2.1 J/K/mol
336 K, Mass density=976 kg/m3	107.32 ± 2.2 J/K/mol and 107.23 ± 2.2 J/K/mol
336 K, Mass density=1077.8 kg/m3	104.74 ± 2.1 J/K/mol and 104.05 ± 2.1 J/K/mol
336 K, Mass density=1198.9 kg/m3	102.26 ± 2.1 J/K/mol
337 K, Mass density=975.9 kg/m3	107.6 ± 2.2 J/K/mol and 108.43 ± 2.2 J/K/mol
337 K, Mass density=1077.7 kg/m3	105.57 ± 2.1 J/K/mol and 105.69 ± 2.1 J/K/mol
337 K, Mass density=1198.8 kg/m3	103.71 ± 2.1 J/K/mol
338 K, Mass density=975.9 kg/m3	107.08 ± 2.2 J/K/mol and 107.59 ± 2.2 J/K/mol
338 K, Mass density=1077.6 kg/m3	104.15 ± 2.1 J/K/mol and 105.09 ± 2.1 J/K/mol
338 K, Mass density=1198.7 kg/m3	104.23 ± 2.1 J/K/mol
339 K, Mass density=883.4 kg/m3	114.19 ± 2.3 J/K/mol
339 K, Mass density=975.8 kg/m3	106.21 ± 2.1 J/K/mol and 106.6 ± 2.1 J/K/mol
339 K, Mass density=1077.5 kg/m3	103.97 ± 2.1 J/K/mol and 103.59 ± 2.1 J/K/mol
339 K, Mass density=1198.5 kg/m3	104 ± 2.1 J/K/mol
340 K, Mass density=883.3 kg/m3	112.9 ± 2.3 J/K/mol
340 K, Mass density=975.7 kg/m3	106.54 ± 2.1 J/K/mol and 107.42 ± 2.2 J/K/mol
340 K, Mass density=1077.4 kg/m3	104.49 ± 2.1 J/K/mol and 105.35 ± 2.1 J/K/mol
341 K, Mass density=883.3 kg/m3	112.1 ± 2.3 J/K/mol
341 K, Mass density=975.6 kg/m3	107.88 ± 2.2 J/K/mol and 107.61 ± 2.2 J/K/mol
341 K, Mass density=1077.3 kg/m3	105.62 ± 2.1 J/K/mol and 105.16 ± 2.1 J/K/mol
342 K, Mass density=883.2 kg/m3	111.03 ± 2.2 J/K/mol
342 K, Mass density=975.6 kg/m3	107 ± 2.1 J/K/mol
342 K, Mass density=1077.2 kg/m3	104.92 ± 2.1 J/K/mol and 104.79 ± 2.1 J/K/mol
343 K, Mass density=502.9 kg/m3	134.81 ± 2.7 J/K/mol
343 K, Mass density=883.1 kg/m3	110.42 ± 2.2 J/K/mol
343 K, Mass density=975.5 kg/m3	106.86 ± 2.1 J/K/mol
343 K, Mass density=1077.1 kg/m3	104.17 ± 2.1 J/K/mol and 104.84 ± 2.1 J/K/mol
344 K, Mass density=502.9 kg/m3	132.16 ± 2.7 J/K/mol
344 K, Mass density=585.8 kg/m3	125.97 ± 2.5 J/K/mol
344 K, Mass density=883.1 kg/m3	111.3 ± 2.2 J/K/mol
344 K, Mass density=975.4 kg/m3	106.41 ± 2.1 J/K/mol
344 K, Mass density=1077 kg/m3	104.75 ± 2.1 J/K/mol and 104.6 ± 2.1 J/K/mol
345 K, Mass density=502.9 kg/m3	126.98 ± 2.6 J/K/mol
345 K, Mass density=585.7 kg/m3	123.95 ± 2.5 J/K/mol
345 K, Mass density=585.8 kg/m3	131.35 ± 2.6 J/K/mol
345 K, Mass density=688.7 kg/m3	126.83 ± 2.6 J/K/mol
345 K, Mass density=883 kg/m3	111.02 ± 2.2 J/K/mol
345 K, Mass density=975.3 kg/m3	107.26 ± 2.2 J/K/mol
345 K, Mass density=1076.9 kg/m3	105.11 ± 2.1 J/K/mol and 104.72 ± 2.1 J/K/mol
346 K, Mass density=403.2 kg/m3	120.08 ± 2.4 J/K/mol
346 K, Mass density=502.9 kg/m3	120.15 ± 2.4 J/K/mol
346 K, Mass density=585.7 kg/m3	120.32 ± 2.4 J/K/mol
346 K, Mass density=585.8 kg/m3	127.65 ± 2.6 J/K/mol
346 K, Mass density=688.7 kg/m3	123.21 ± 2.5 J/K/mol
346 K, Mass density=774.1 kg/m3	115.2 ± 2.3 J/K/mol
346 K, Mass density=883 kg/m3	110.89 ± 2.2 J/K/mol
346 K, Mass density=975.3 kg/m3	107.47 ± 2.2 J/K/mol and 107.62 ± 2.2 J/K/mol
346 K, Mass density=1076.8 kg/m3	105.53 ± 2.1 J/K/mol and 105.08 ± 2.1 J/K/mol
347 K, Mass density=403.2 kg/m3	117.75 ± 2.4 J/K/mol
347 K, Mass density=503 kg/m3	115.93 ± 2.3 J/K/mol
347 K, Mass density=585.7 kg/m3	117.72 ± 2.4 J/K/mol
347 K, Mass density=585.8 kg/m3	123.89 ± 2.5 J/K/mol
347 K, Mass density=688.7 kg/m3	119.23 ± 2.4 J/K/mol
347 K, Mass density=774.1 kg/m3	114.9 ± 2.3 J/K/mol
347 K, Mass density=882.9 kg/m3	110.19 ± 2.2 J/K/mol
347 K, Mass density=975.2 kg/m3	105.52 ± 2.1 J/K/mol and 107.28 ± 2.2 J/K/mol
347 K, Mass density=1076.7 kg/m3	105.04 ± 2.1 J/K/mol and 104.54 ± 2.1 J/K/mol
348 K, Mass density=403.3 kg/m3	116.59 ± 2.3 J/K/mol
348 K, Mass density=503 kg/m3	118.49 ± 2.4 J/K/mol
348 K, Mass density=585.7 kg/m3	124.85 ± 2.5 J/K/mol and 118.08 ± 2.4 J/K/mol
348 K, Mass density=688.7 kg/m3	117.7 ± 2.4 J/K/mol
348 K, Mass density=774 kg/m3	114.62 ± 2.3 J/K/mol
348 K, Mass density=882.8 kg/m3	109.75 ± 2.2 J/K/mol
348 K, Mass density=975.1 kg/m3	106.21 ± 2.1 J/K/mol and 107.41 ± 2.2 J/K/mol
348 K, Mass density=1076.6 kg/m3	104.59 ± 2.1 J/K/mol and 104.74 ± 2.1 J/K/mol
349 K, Mass density=403.3 kg/m3	115.69 ± 2.3 J/K/mol
349 K, Mass density=503 kg/m3	119.76 ± 2.4 J/K/mol
349 K, Mass density=585.7 kg/m3	123.44 ± 2.5 J/K/mol and 117.14 ± 2.4 J/K/mol
349 K, Mass density=688.6 kg/m3	119.03 ± 2.4 J/K/mol
349 K, Mass density=774 kg/m3	115.4 ± 2.3 J/K/mol
349 K, Mass density=882.8 kg/m3	110.59 ± 2.2 J/K/mol
349 K, Mass density=975 kg/m3	107.41 ± 2.2 J/K/mol and 108.49 ± 2.2 J/K/mol
349 K, Mass density=1076.6 kg/m3	105.38 ± 2.1 J/K/mol and 105.95 ± 2.1 J/K/mol
350 K, Mass density=403.4 kg/m3	113.67 ± 2.3 J/K/mol
350 K, Mass density=503 kg/m3	116.82 ± 2.4 J/K/mol
